Results from BigSolDB 2.1.

Cn1c([N+](=O)[O-])cnc1N1CCN(S(C)(=O)=O)C1=O
solubility (mole fraction)
Settings | 293.2 K | 298.2 K | 303.2 K | 308.2 K | 313.2 K
in 1,4-butanediol | 0.000939 | 0.00132 | 0.00176 | 0.0024 | 0.00315
in 1,4-dioxane | 0.00814 | 0.0106 | 0.0127 | 0.0158 | 0.0189
in DMAc | 0.0363 | 0.0481 | 0.0617 | 0.0765 | 0.0963
in DMF | 0.0406 | 0.0542 | 0.0683 | 0.083 | 0.103
in DMSO | 0.057 | 0.0702 | 0.085 | 0.0987 | 0.114
in NMP | 0.0796 | 0.116 | 0.181 | 0.262 | 0.366
in ethanol | 0.000378 | 0.00048 | 0.000582 | 0.000726 | 0.000851
in ethylene glycol | 0.000879 | 0.00149 | 0.00228 | 0.00358 | 0.00558
in formamide | 0.0476 | 0.0591 | 0.0771 | 0.0938 | 0.109
in glycerin | 0.000743 | 0.000861 | 0.000984 | 0.00114 | 0.00128
in isopropanol | 0.000315 | 0.000368 | 0.000447 | 0.000527 | 0.000659
in methanol | 0.000481 | 0.000539 | 0.000624 | 0.000739 | 0.000871
in n-propanol | 0.000356 | 0.000436 | 0.000541 | 0.000673 | 0.000832
in propylene glycol | 0.00136 | 0.00232 | 0.00347 | 0.00538 | 0.00836
in water | 2.86e-06 | 3.21e-06 | 3.66e-06 | 4.24e-06 | 5.06e-06

Settings | solubility (mole fraction)
in PEG-200, 293.2 K | 0.00829
in PEG-200, 298.2 K | 0.011
in PEG-200, 303.2 K | 0.0153
in PEG-200, 308.2 K | 0.0205
in PEG-200, 313.2 K | 0.0271
in PEG-400, 293.2 K | 0.0123
in PEG-400, 298.2 K | 0.0176
in PEG-400, 303.2 K | 0.0247
in PEG-400, 308.2 K | 0.0343
in PEG-400, 313.2 K | 0.0462
in PEG-600, 293.2 K | 0.015
in PEG-600, 298.2 K | 0.0218
in PEG-600, 303.2 K | 0.0302
in PEG-600, 308.2 K | 0.0429
in PEG-600, 313.2 K | 0.058
